Data as given in patent publication US20200281845A1, “COMPOSITIONS COMPRISING LESPEDEZA PLANT EXTRACT” (Clariant International Ltd., priority 2017, published 2020).

Tested on: Per2pro-LUC
Assay: Improvement of circadian clock activity reduced by TCDD, Per2pro-LUC in HaCaT cells
Format: cell-based, human
Conditions: TCDD 1.5 nM for 4 hours, compared to cells treated with solvent toluene alone
Method: The improvement effects of the extracts of Lespedeza bicolor Turcz, Lespedeza cuneata G. Don, Lespedeza maximowiczii C. K. Schneid and Lespedeza capitata were measured in skin circadian clock activity reduced by TCDD (2,3,7,8-Tetrachlorodibenzo-p-dioxin) which is an environmental hormone dioxin. HaCaT cells containing Per2pro-LUC were inoculated in a 96-well plate containing Hygromycine B at 200 ug/ml and 10% FBS in DMEM medium (1.4×10^4 cells/well), and cultured in a 5% CO2 incubator at 37° C. for 48 hours. After 48 hours, 50 ug/ml of the extracts of Lespedeza bicolor Turcz, Lespedeza cuneata G. Don and Lespedeza maximowiczii C. K. Schneid and Lespedeza capitata were each treated for 24 hours while being treated with TCDD (2,3,7,8-tetrachlorodibenzo-p-dioxin) 1.5 nM for 4 hours simultaneously, and then transferred to the medium for measuring Luciferase (DMEM containing HEPES 10 mM, Luciferin 1 mM, Hygromycine B 200 ug/ml, 10% FBS). […] K. Schneid and Lespedeza capitata in alleviating reduced biorhythm by environmental hormones. As shown here, cells treated with TCDD had 30% reduced absolute value for Per2pro-LUC rhythm, compared to cells that were treated with the solvent toluene alone. In contrast to this, cells treated with the extracts of Lespedeza bicolor Turcz, Lespedeza cuneata G. Don, Lespedeza maximowiczii C.

Clc1cc2c(cc1Cl)Oc1cc(Cl)c(Cl)cc1O2 [TCDD, 2,3,7,8-Tetrachlorodibenzo-p-dioxin]
reduced absolute value for Per2pro-LUC rhythm: 30%
